Source: patent publication US10408843B2, “Compositions and methods for detecting S-nitrosylation and S-sulfinylation” (The Regents of the University of Michigan, priority 2013, dated 2019)

Columns and labels:
[1] = tested on: sulfenic acids in 293T cell lysates; assay: Dimedone-alkyne detection of sulfenic acids in lysates; type: biochemical, human
Experimental: FIG. 12. Sulfenic acids are eliminated by ascorbate reduction or denaturing buffers. Lysates were labeled for 1 hour with 1 mM dimedone-alkyne, and precipitated with chloroform:methanol. The protein fraction was sonicated in PBS and diluted to 1 mg/mL, and incubated with 20 μM TAMRA-azide, 1 mM CuSO4, and 100 μM Tris[(1-benzyl-1H-1,2,3-triazol-4-yl)methyl]amine (TBTA) for 1 hour, boiled in reducing loading buffer, and separated by SDS-PAGE. After transfer and Cy5-streptavidin binding, the gel was visualized using a GE Typhoon fluorescence scanner. […] Pre-treatment with sodium ascorbate (20 mM) for 30 minutes efficiently reduces sulfenic acids. […] Furthermore, ascorbate reduces sulfenic acids, and confirms non-selective enrichment of an additional cysteine oxidative modification by the biotin-switch method.

[2] = molecular target: T1, Recombinant human GAPDH (Homo sapiens, UniProt P04406); assay: Labeling of recombinant GAPDH (in-gel fluorescence, LC-MS); type: biochemical
T1 construct: 6His; made in house; host or cells: E. coli BL21
Experimental: FIG. 14. Profiling fluorescein-SO2H reactivity and selectivity on S-nitrosylated GAPDH. Recombinant human GAPDH was resuspended in 6 M urea/PBS, treated with 50 mM iodoacetamide for 30 minutes, and mixed with dimedone, ascorbate, peroxide or NO donor (5 minutes). Fluorescein-SO2H (500 μM) was then added to the GAPDH sample for 45 minutes. S-nitrosylated human GAPDH labeling increases upon incubation with the NO donor MAHMA-NONOate, and decreases following treatment with ascorbate. […] Fluorescein-SO2H labeling is unaffected by pre-incubation with peroxide or dimedone.
FIG. 15. Biotin-SO2H reacts with human GAPDH and forms a thiosulfonate. Recombinant human GADPH was labeled with biotin-SO2H for site-specific analysis of S-nitrosylation by high-resolution mass spectrometry.
Given the efficient and selective conjugation of sulfinic acids and nitrosothiols, recombinant human GAPDH were next purified for targeted analysis of S-sulfinylation with biotin-SO2H. […] Biotin-SO2H-labeled GAPDH protein was digested with trypsin and analyzed by high-resolution mass spectrometry, identifying a biotin-thiosulfonate modified peptide encompassing the GAPDH catalytic cysteine (FIG. 15). […] These studies confirm direct detection of native of S-sulfinylation by sulfinic acid probes for mass spectrometry analysis.
Purified human GAPDH was diluted to 0.2 mg/mL in phosphate buffered saline (pH 7.3), and treated with 20 mM iodoacetamide for 30 minutes. Next, the sample was treated with 100 μM biotin-SO2H. Purified human DJ-1 was diluted to 0.2 mg/mL in PBS, and incubated with 20 mM iodoacetamide to alkylated free thiols. Next, the sample was treated with 2 mM hydrogen peroxide for 20 minutes to promote Cys106 sulfinic acid formation. […] Eluted peptides were analyzed using a Waters Synapt G2-S HDMS time-of-flight mass spectrometer in positive mode. […] MS data was searched using Waters Protein Lynx Global Server v3.0 using the exact mass calculated for the cysteine thiosulfonate modification.

[3] = tested on: S-nitrosylated proteins in mammalian cell lysates; assay: Gel-based labeling of endogenous S-nitrosylated proteins in cell lysates; type: biochemical, human; conditions: lysates denatured, alkylated with iodoacetamide; streptavidin detection
Experimental: FIG. 8. Dose-dependent labeling of S-nitrosylated proteins by biotin-SO2H. 293T and PANC1 cells were lysed in 6 M urea/PBS and alkylated with 50 mM iodoacetamide for 30 minutes, followed by incubation with increasing concentrations of biotin-SO2H for 45 minutes.
Next, the reactivity of sulfinic acids with native S-nitrosylated proteins was examined. Biotin and fluorescein N-hydroxysuccinimide (NHS) esters were directly coupled to the biological sulfinic acid metabolite hypotaurine (biotin-SO2H) or the sulfonic acid metabolite taurine (biotin-SO3H). Each probe was incubated with mammalian cell lysates pre-alkylated with excess iodoacetamide (FIG. 1b) in 6 M urea/phosphate buffered saline (PBS), and separated by non-reducing SDS-PAGE for transfer to nitrocellulose and streptavidin detection. […]
Cells and lysates were protected from light and kept on ice throughout the labeling protocol, except when noted. […] Lysate protein concentrations were quantified using the Bio-Rad DC assay, and diluted 3 mg/mL in 6 M urea/PBS. […] For in-gel fluorescence analysis, samples were loaded without boiling using non-reducing SDS-PAGE loading buffer for SDS-PAGE separation. […] In-gel fluorescence and streptavidin blots were analyzed using a GE typhoon scanner at appropriate wavelengths (488/526 for fluorescein and 633/670 for Cy5-Streptavidin).

[4] = Rate constant determination: loss of GSNO absorbance after phenylsulfinic acid addition; type: physicochemical
Experimental: FIG. 6A-B. GSNO is consumed by increasing concentrations of sodium phenylsulfinate. (a) A 2 mM solution of S-nitrosoglutathione (GSNO, Cayman) was treated with increasing concentrations of phenylsulfinic acid, and the absorbance of GSNO was monitored over a period of 90 minutes at 340 nm using a plate reader in varying pH buffers. (b) Calculation of rate constants at differing pH values. At pH 7, the rate becomes more hyperpbolic.
Thiosulfonate formation was further characterized by measuring the loss of S-nitroso-glutathione (GSNO) absorbance after phenylsulfinic acid addition (FIG. 6). At pH 1 and 4, the reaction rate is first order and proceeds at 3×10^−5 M·sec^−1. […]
S-nitrosoglutathione (GSNO, Cayman) and sodium phenylsulfinate (Sigma-Aldrich) were used for rate-determination studies at four pH values: pH 1.0 (0.2 N HCl/KCl buffer), pH 4.0 (0.1 M Sodium acetate/Acetic Acid buffer), pH 7.0 (0.1 M potassium phosphate buffer) and pH 10.0 (0.1 M Sodium bicarbonate/Sodium hydroxide buffer). The purity of S-nitrosoglutathione was calculated as 94±1.3% by absorbance at 334 nm using the molar extinction coefficient of 900 M^−1 cm^−1. Assays were performed using a plate reader (Tecan Infinite F500) monitoring absorbance of 2 mM GSNO at 340 nm over a course of 90 minutes in the presence of varying concentrations of sodium phenylsulfinate. […]

[5] = HPLC cross-reactivity assay of phenylsulfinic acid; type: physicochemical
Experimental: FIG. 3. […] A 10 mM solution of phenylsulfinic acid was allowed to react with a 20 mM solution of iodoacetamide in potassium phosphate buffer pH 7.4 for 5 hours. After 5 hours, the reaction mixture was injected on an HPLC and separated using gradient elution (5% ACN to 95% ACN over 15 minutes). Absence of additional peaks (over 202-798 nm, monitored on a PDA detector) was interpreted as no reaction between the sulfinic acid and iodoacetamide.
A 2 mM solution of phenylsulfinic acid was allowed to stand with 20 mM solutions of N-acetyl-cysteine-methyl ester, benzaldehyde, cystine dimethyl ester, and 5,5′-dithiobis-(2-nitrobenzoic acid) in phosphate buffer pH 7.4 for 5 hours. The reaction mixtures were injected on an HPLC and analyzed using gradient elution (5% ACN to 95% ACN over 15 minutes). Peaks beyond minute 8.6 in (a) are contaminants present in the commercial cysteine sample (Sigma-Aldrich).
Cross-reactivity was determined by allowing components to react for 4 hours. HPLC analysis (every 30 minutes) was used to monitor reactions. Reduction in peak intensity of initial components and the appearance of new peak was termed as a positive reaction. Partial reaction indicates incomplete reaction.

[6] = HPLC assay of thiosulfonate reduction by TCEP or ascorbate; type: physicochemical
Experimental: FIG. 5A-B. The thiosulfonate product is reduced by TCEP, but not ascorbate. A 0.5 mM solution of the thiosulfonate product was incubated with 2.5 mM TCEP or 2.5 mM sodium ascorbate in phosphate buffer (pH 7.4) in the dark at room temperature. After 5 minutes and 60 minutes, an aliquot injected for HPLC analysis and separated using gradient elution (5% ACN to 95% ACN over 15 minutes).

T1 sequence (P04406 whole entry): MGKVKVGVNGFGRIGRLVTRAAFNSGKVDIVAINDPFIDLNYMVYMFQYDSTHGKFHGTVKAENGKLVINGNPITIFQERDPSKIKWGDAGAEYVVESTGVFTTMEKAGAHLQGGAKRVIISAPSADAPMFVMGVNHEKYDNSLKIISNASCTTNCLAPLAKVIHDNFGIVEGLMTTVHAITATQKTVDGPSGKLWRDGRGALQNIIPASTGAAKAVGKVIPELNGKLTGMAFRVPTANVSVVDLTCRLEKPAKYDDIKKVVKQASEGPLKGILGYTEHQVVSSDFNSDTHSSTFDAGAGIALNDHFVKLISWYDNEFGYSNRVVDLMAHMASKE

Compound: C#CCCCC1CC(=O)CC(=O)C1 [Dimedone alkyne, 5-(pent-4-yn-1-yl)cyclohexane-1,3-dione]
- detection of sulfenic acids ([1]; 1 mM, 1 hour, PBS): most efficient in PBS
- dimedone labeling ([1]; lysate denatured in 6 M urea/PBS): nearly completely eliminated

Compound: O=C(NCCS(=O)O)c1ccc(-c2c3ccc(=O)cc-3oc3cc(O)ccc23)c(C(=O)O)c1 [Fluorescein-SO2H, 2-(6-hydroxy-3-oxo-3H-xanthen-9-yl)-5-((2-sulfinoethyl)carbamoyl)benzoic Acid]
- GAPDH labeling after pre-incubation with peroxide or dimedone ([2]; 500 μM probe, 45 minutes): unaffected

Compound: O=C(CCCC[C@@H]1SC[C@@H]2NC(=O)N[C@@H]21)NCCS(=O)(=O)O [biotin-SO3H, 2-(5-((3aS,4S,6aR)-2-oxohexahydro-1H-thieno[3,4-d]imidazol-4-yl)pentanamido)ethanesulfonic Acid]
- labeling of mammalian proteins [3]: unreactive

Compound: O=C(NCCS(=O)(=O)O)c1ccc(-c2c3ccc(=O)cc-3oc3cc(O)ccc23)c(C(=O)O)c1 [fluorescein-SO3H, 2-(6-hydroxy-3-oxo-3H-xanthen-9-yl)-5-((2-sulfoethyl)carbamoyl)benzoic Acid]
- labeling of GAPDH ([2]; 6 M urea/PBS, 50 mM iodoacetamide, probe 45 minutes): does not label GAPDH

Compound: O=S(O)c1ccccc1 [phenylsulfinic acid]
- reaction with GSNO ([4]; basic conditions): no reaction occurs
- reaction rate of thiosulfonate formation with GSNO ([4]; pH 1 and 4, first order): 3e-05 M/s
- reaction with thiols, disulfides, or aldehydes ([5]; 2 mM with 20 mM N-acetyl-cysteine-methyl ester, benzaldehyde, cystine dimethyl ester, DTNB, phosphate buffer pH 7.4, 5 hours): do not react
- reaction with iodoacetamide ([5]; 10 mM with 20 mM iodoacetamide, potassium phosphate buffer pH 7.4, 5 hours): no reaction

Compound: COC(=O)[C@H](CSS(=O)(=O)c1ccccc1)NC(C)=O [thiosulfonate product, (R)-methyl 2-acetamido-3-((phenylsulfonyl)thio)propanoate]
- cleavage of thiosulfonate bond by TCEP ([6]; 0.5 mM with 2.5 mM TCEP, phosphate buffer pH 7.4, room temperature): immediately cleaves
- cleavage of thiosulfonate bond by ascorbate ([6]; 0.5 mM with 2.5 mM sodium ascorbate, pH 7.4, 60 minutes): does not
